Measured values: patent US7396856B2, “Benzopyran analogs and their use for the treatment of glaucoma” (Alcon, Inc., priority 2002, dated 2008)
Where a name gives a salt, the structure may show the parent alone. Read-outs that look alike come from different tables or passages of the source.

Legend:
5-HT2 receptor = biological target: T1, 5-HT2 receptor (Rattus norvegicus, UniProt P14842); test: 5-HT2 functional assay: [Ca2+]i mobilization (FLIPR) in A7r5 cells; format: cell-based; settings: for Emax / Efficacy (Emax, %): percentage of maximum 5-HT-induced response; for Emax: read-out: Efficacy (Emax, %); for EC50: A7r5 rat vascular smooth muscle cells, FLIPR
T1 construct: endogenous in cells; host or cells: A7r5 rat vascular smooth muscle cells
T1 sequence (P14842 whole entry): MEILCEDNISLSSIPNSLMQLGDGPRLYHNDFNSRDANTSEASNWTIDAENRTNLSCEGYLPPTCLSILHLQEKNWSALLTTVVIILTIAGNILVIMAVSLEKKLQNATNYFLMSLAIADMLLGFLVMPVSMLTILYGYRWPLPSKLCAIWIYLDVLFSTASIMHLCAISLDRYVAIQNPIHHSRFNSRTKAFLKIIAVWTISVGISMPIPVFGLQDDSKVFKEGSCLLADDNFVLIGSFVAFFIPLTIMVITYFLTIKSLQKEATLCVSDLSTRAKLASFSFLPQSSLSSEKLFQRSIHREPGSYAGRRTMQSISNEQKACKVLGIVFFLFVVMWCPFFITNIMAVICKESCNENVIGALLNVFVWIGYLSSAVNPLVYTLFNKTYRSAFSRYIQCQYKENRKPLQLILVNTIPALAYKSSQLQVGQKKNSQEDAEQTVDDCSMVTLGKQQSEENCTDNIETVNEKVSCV
Experimental: 5-HT2 Functional Assay: [Ca^2+]i Mobilization
The receptor-mediated mobilization on intracellular calcium ([Ca^2+]i) was studied using the Fluorescence Imaging Plate Reader (FLIPR) instrument. Rat vascular smooth muscle cells, A7r5, were grown in a normal media of […] and 10 μg/mL gentamycin. Confluent cell monolayers were trypsinized, pelleted, and re-suspended in normal media. Cells were seeded in a 50 μL volume at a density of 20,000 cells/well in a black wall, 96-well tissue culture plate and grown for 2 days.
On the day of the experiment, one vial of FLIPR Calcium Assay Kit dye was re-suspended in 50 mL of a FLIPR buffer consisting of Hank's Balanced Salt Solution (HBSS), 20 mM HEPES, and 2.5 mM probenecid, pH 7.4. Cells were loaded with the calcium-sensitive dye by addition of an equal volume ([…]) to each well of the 96-well plate and incubated with dye for 1 h at 23° C.
Compounds were diluted 1:50 in […]. For “hit” screening, compounds were further diluted 1:10 in FLIPR buffer and tested at a final concentration of 10 μM.
The compound plate and cell plate were placed in the FLIPR instrument. At the beginning of an experimental run, a signal test was performed to check the basal fluorescence signal from the dye-loaded cells and the uniformity of the signal across the plate. The basal fluorescence was adjusted between 8000-12000 counts by modifying the exposure time, the camera F-stop, or the laser power. Instrument settings for a typical assay were the following: laser power 0.3-0.6 W, camera F-stop F/2, and exposure time 0.4 sec. An aliquot (25 μL) of the test compound was added to the existing 100 μL dye-loaded cells at a dispensing speed of 50 μL/sec. Fluorescence data were collected in real-time at 1.0 sec intervals for the first 60 secs and at 6.0 sec intervals for an additional 120 secs.

[1] = system: intraocular pressure (IOP); test: Acute IOP response in lasered (hypertensive) eyes of conscious cynomolgus monkeys; format: in vivo; settings: lasered monkey eye
Experimental: Acute IOP Response in Lasered (Hypertensive) Eyes of Conscious Cynomolgus Monkeys
Intraocular pressure (IOP) can be determined with an Alcon Pneumatonometer after light corneal anesthesia with 0.1% proparacaine. Eyes are washed with saline after each measurement. After a baseline IOP measurement, test compound is instilled in one 30 μL aliquot to the right eyes only of nine cynomolgus monkeys. Vehicle is instilled in the right eyes of six additional animals. Subsequent IOP measurements are taken at 1, 3, and 6 hours.

brain 5-HT2 receptors = brain 5-HT2 receptors (Rattus norvegicus, UniProt P14842); test: 5-HT2 receptor binding assay ([125I]DOI competition); settings: [125I]DOI displacement, rat or human cerebral cortex homogenates
brain 5-HT2 receptors, sequence (P14842 whole entry): as above
Experimental: 5-HT2 Receptor Binding Assay
The assay mixture is incubated for 1 hour at 23° C. in polypropylene tubes and the assays terminated by rapid vacuum filtration over Whatman GF/B glass fiber filters previously soaked in 0.3% polyethyleneimine using ice-cold buffer. Test compounds (at different concentrations) are substituted for methiothepin. Filter-bound radioactivity is determined by scintillation spectrometry on a beta counter. The data are analyzed using a non-linear, iterative curve-fitting computer program [Trends Pharmacol. Sci., 16, 413 (1995)] to determine the compound affinity parameter. The concentration of the compound needed to inhibit the [^125I]DOI binding by 50% of the maximum is termed the IC50 or Ki value.

[2] = EC50, nM (5-HT2 functional, [Ca2+]i mobilization)
[3] = 1 hour after single topical ocular instillation of 300 μg
[4] = 3 hours after single topical ocular instillation of 300 μg
[5] = 6 hours after single topical ocular instillation of 300 μg

COc1cc(CC(C)N)c(OC)c2c1CCOC2 (racemic) [Compound A, 2-(5,8-Dimethoxy-isochroman-7-yl)-1-methyl-ethylamine hydrochloride]
Emax (5-HT2 receptor; A7r5 cells): 55% | EC50 (5-HT2 receptor; [2]): 267 nM

COc1cc(CC(C)N)c(OC)c2c1CCOC2.Cl (single isomer, unassigned; (+)) [Compound C, (+) 2-(5,8-Dimethoxy-isochroman-7-yl)-1-methyl-ethylamine hydrochloride]
Efficacy (Emax, %) (5-HT2 receptor; A7r5 cells, hydrochloride): 69% | EC50 (5-HT2 receptor; [2]): 43 nM

COc1cc(CC(C)N)c(OC)c2c1CCOC2.Cl (single isomer, unassigned; (-)) [Compound B, (−) 2-(5,8-Dimethoxy-isochroman-7-yl)-1-methyl-ethylamine hydrochloride]
IOP lowering (%) [1, 3]: 15.8% | IOP lowering (mmHg) [1, 3]: 6.8 mmHg | IOP lowering (%) [1, 4]: 28.5% | IOP lowering (mmHg) [1, 4]: 12.5 mmHg | IOP lowering (%) [1, 5]: 21.3% | IOP lowering (mmHg) [1, 5]: 9.6 mmHg | Emax (5-HT2 receptor; A7R5, A7r5 cells): 55% | EC50 (5-HT2 receptor; [2]): 39 nM

COc1cc(CC(C)N)c(OC)cc1I (stereo not drawn) [DOI, reference compound]
IC50 (brain 5-HT2 receptors): 0.33 nM | Efficacy (Emax, %) (5-HT2 receptor; A7r5 cells): 31% | EC50 (5-HT2 receptor; read-out: EC50, nM (5-HT2 functional, [Ca2+]i mobilization)): 30.2 nM
